Test results from patent US20260294770A1, “FORMULATIONS OF NARINGENIN” (DEBUT BIOTECHNOLOGY, INC., priority 2023, published 2026).

Tests used:
IL37 = experiment: Upregulation of gene expression and/or activity, 1% naringenin: IL37
Excerpt: (§1) In certain embodiments, administration of a composition comprising naringenin leads to up-regulation of LCE5A, KRT77, ALOXE3, KRT1, HPGD, MUCL1, CASP14, WFDC12, KRT10, DNASE1L2, IL37, SERPINB12, HAL, UPK1A, CALML5, LCE2B, and/or MIR205. In certain embodiments, administration of a composition comprising naringenin leads to down-regulation of CCL11, CSF2, IL23A, IL11, BMP6, IL13RA2, C2CD4A, NR4A2, C2CD4B, FGF2, FARP4, GDF15, THBS1, HSPA1A, PTGS2, and/or DKK1. Tables 10 and 11 provide data for upregulation and downregulation respectively of certain genes after administration of compositions comprising 1% naringenin.

CALML5 = experiment: Upregulation of gene expression and/or activity, 1% naringenin: CALML5
Excerpt: as §1
Calmodulin like 5 (CALML5) plays a role in cell growth. The enzyme encoded by CALML5 is a novel calcium binding protein expressed in the epidermis and related to the calmodulin family of calcium binding proteins. It plays a key role in cell growth and proliferation, including playing a key role in terminal differentiation of keratinocytes. In certain embodiments, administration of compositions comprising naringenin leads to upregulation of CALML5, which leads to increase cell proliferation, including the cells in the skin and the underlying tissues. […] In certain embodiments, the administration of composition comprising naringenin results in at least about 2 to about 10-fold upregulation of expression and/or activity of CALML5. […]

MIR205 = experiment: Upregulation of gene expression and/or activity, 1% naringenin: MIR205
Excerpt: as §1
MicroRNA 205 (MIR205) plays a role in clearance of damaged cells. In certain embodiments, administration of compositions comprising naringenin leads to upregulation of MIR205, which leads to increase clearance of damaged cells. This increase in clearance of damaged cells leads to enhancement in cell turnover and/or recycling, which results in an improvement in anti-aging effect. […] In certain embodiments, the administration of composition comprising naringenin results in at least about 2 to about 10-fold upregulation of expression and/or activity of MIR205. In certain embodiments, the administration of composition comprising naringenin results in at least about five (5) fold upregulation of expression and/or activity of MIR205.

IL11 = experiment: Downregulation of gene expression and/or activity, 1% naringenin: IL11
Excerpt: as §1
Interleukin 11 (IL11) plays a role in the inflammatory pathway and in certain pathways that may be involved in cancer. In certain embodiments of the invention, downregulation of IL11 leads to an anti-inflammatory activity and/or anticancer activity. In certain embodiments, the administration of composition comprising naringenin results in at least about 10 to about 20-fold downregulation of expression and/or activity of IL11. In certain embodiments, the administration of composition comprising naringenin results in at least about ten (10) fold downregulation of expression and/or activity of IL11.

HSPA1A = experiment: Downregulation of gene expression and/or activity, 1% naringenin: HSPA1A
Excerpt: as §1
Heat shock protein family A (Hsp70) member 1A (HSPA1A) plays a role in clearing of aged cells and/or senolytic effect. In certain embodiments, the administration of compositions comprising naringenin leads to downregulation of expression and/or activity of HSPA1A. […] In certain embodiments, this may also lead to anti-aging effect for the skin. In certain embodiments, the administration of composition comprising naringenin results in at least about 2 to about 10-fold downregulation of expression and/or activity of HSPA1A. In certain embodiments, the administration of composition comprising naringenin results in at least about five (5) fold downregulation of expression and/or activity of HSPA1A.

[1] = DPPH antioxidant activity assay (organic medium); format: biochemical; conditions: for % Radical Inhibition: organic medium
Excerpt: The 2,2-diphenyl-1-picrylhydrazyl (DPPH) antioxidant assay is designed to evaluate the antioxidant activity of compositions comprising naringenin in an organic medium.
2,2-diphenyl-1-picrylhydrazyl (DPPH) is a stable free radical used to evaluate free radical scavenging capacity of a material. In the presence of an antioxidant DPPH is reduced, resulting in the formation of a colorless solution. Reduction of absorbance at 517 nm is standardized to solvent control as an indication of DPPH scavenging.

[2] = Glycation inhibition assay; format: biochemical; conditions: for IC50 glycation inhibition: calculated
Procedure: The assay was conducted to evaluate the glycation inhibition activity of compositions comprising naringenin.
Nonenzymatic glycation can occur when glucose reacts with proteins, forming a Schiff base intermediate that subsequently undergoes Amadori rearrangement to form glycosylated proteins, when they react with skin proteins to form Advanced Glycation End products (AGE). AGE formation can result in loss of skin elasticity and impaired cellular function. The glycation inhibition ability of a compound is measured by change in fluorescence m relative to solvent control.

IL-6 = IL-6 concentration in stimulated (stressed) normal human epidermal keratinocytes (ELISA); format: cell-based; conditions: for IL-6 concentration: LPS + Poly:IC stressed NHEK, stimulated control 1124.6
Excerpt: Normal Human Epidermal Keratinocytes (NHEK) were stressed with a cocktail of lipopolysaccharide (LPS) and Polyinosinic-polycytidylic acid sodium salt (Poly:IC), external aggressors capable of inducing an inflammatory response. Stressed cells were subsequently treated with test articles and reduction in inflammatory markers was measuring by ELISA. Tables 19 and 20, provided below, discloses data for TNFα and IL-6 concentrations, respectively, in stressed normal human epidermal keratinocytes.

[3] = cited from earlier work
superoxide dismutase = conditions: consumed orally; cited from earlier work

SMILES: O=C1C[C@@H](c2ccc(O)cc2)Oc2cc(O)cc(O)c21 [naringenin, (2S)-5,7-Dihydroxy-2-(4-hydroxyphenyl)-2,3-dihydro-4H-1-benzopyran-4-one]
- Fold-increase in expression and/or activity of IL37 (IL37): 11 fold
- Fold-increase in expression and/or activity of CALML5 (CALML5): ~7 fold
- Fold-increase in expression and/or activity of MIR205 (MIR205): ~6 fold
- fold downregulation in expression and/or activity of IL11 (IL11): ~14 fold
- fold downregulation in expression and/or activity of HSPA1A (HSPA1A): ~6 fold
- Fold-increase (downregulation table) HSPA1A (HSPA1A; negative = downregulation): −6 fold
- % Radical Inhibition ([1]; 0.50 % w/w naringenin): 18.82%
- % Radical Inhibition ([1]; 1.00 % w/w naringenin): 28.44%
- % Radical Inhibition ([1]; 2.00 % w/w naringenin): 46.82%
- Lowest concentration with antioxidant activity ([1]; organic solvent systems): ≤ 0.2 % w/w
- Lowest concentration inhibiting glycation [2]: ≤ 0.002 % w/w
- % Enzyme Inhibition (glycation inhibition) ([2]; 0.008 % w/w naringenin): 27.87%
- % Enzyme Inhibition (glycation inhibition) ([2]; 0.016 % w/w naringenin): 45.49%
- % Enzyme Inhibition (glycation inhibition) ([2]; 0.031 % w/w naringenin): 60.22%
- % Enzyme Inhibition (glycation inhibition) ([2]; 0.0625 % w/w naringenin): 69.05%
- IC50 glycation inhibition [2]: 0.019 % w/w
- IC50 glycation inhibition ([2]; Example 7): 0.019%
- IL-6 concentration (IL-6; 0.0001% naringenin, p-value 0.0001): 395.8 pg/mL
- IL-6 concentration (IL-6; 0.0045% naringenin, p-value 0.0029): 42.0 pg/mL
- IL-6 concentration (IL-6; 0.007% naringenin, p-value 0.0030): 50.0 pg/mL
- IL-6 concentration (IL-6; 0.01% naringenin, p-value 0.0035): 76.6 pg/mL
- inhibition at 0.0001 % (IL-6; Homo sapiens, NHEK, 0.0001% naringenin, vs stimulated control, p-value 0.0001, read-out: IL-6 % Reduction vs Treated): 64.8%
- inhibition at 0.0045 % (IL-6; Homo sapiens, NHEK, 0.0045% naringenin, vs stimulated control, p-value 0.0029, read-out: IL-6 % Reduction vs Treated): 96.3%
- inhibition at 0.007 % (IL-6; Homo sapiens, NHEK, 0.007% naringenin, vs stimulated control, p-value 0.0030, read-out: IL-6 % Reduction vs Treated): 95.6%
- inhibition at 0.01 % (IL-6; Homo sapiens, NHEK, 0.01% naringenin, vs stimulated control, p-value 0.0035, read-out: IL-6 % Reduction vs Treated): 93.2%
- Reduction of IL-6 (in words) (IL-6; stressed keratinocytes): to non-stressed levels
- Safety on oral ingestion [3]: generally considered safe for oral ingestion
- Superoxide dismutase (superoxide dismutase): increase
